# Test results reported in patent publication US20050009124A1, “Assays for detection of phosphoinositide kinase and phosphatase activity” (Echelon Biosciences Incorporated, priority 2001, published 2005).
# Read-outs that look alike come from different tables or passages of the source.
# Assays:
# Assay type in all cases: binding
# GST-Grp1 = molecular target: T1, GST-Grp1 (Homo sapiens, UniProt O43739); test: Competition fluorogenic assay with GST-Grp1/GS-QSY 7 complex; settings: probe 10 nM, GST-Grp1 0.5 μM, GS-QSY 7 2.5 μM, increasing competitor
# T1 sequence (O43739 1-400): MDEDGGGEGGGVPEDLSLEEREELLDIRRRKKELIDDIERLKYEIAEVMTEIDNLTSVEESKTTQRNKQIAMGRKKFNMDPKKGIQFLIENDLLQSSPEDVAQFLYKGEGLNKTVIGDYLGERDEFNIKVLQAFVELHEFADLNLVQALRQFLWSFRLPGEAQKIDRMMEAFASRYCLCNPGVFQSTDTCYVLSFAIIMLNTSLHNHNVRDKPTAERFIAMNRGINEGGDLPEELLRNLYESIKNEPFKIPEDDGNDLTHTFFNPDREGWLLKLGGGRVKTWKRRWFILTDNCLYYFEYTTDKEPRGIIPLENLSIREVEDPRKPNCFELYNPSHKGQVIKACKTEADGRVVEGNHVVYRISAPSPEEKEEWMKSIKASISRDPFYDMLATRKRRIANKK
# Procedure: The fluorogenic assays using a glutathione quencher conjugate (e.g. GS-QSY 7) were set up in a black 384-well plate. A combination of the assay components described in detail below, including GST-Grp1, BODIPY®-FL-PI(3,4,5)P3, GS-QSY7, and phosphoinositide competitors, were incubated in the dark for 1 hour. The total reaction volume was either 25 or 50 μl in PBS (pH 7.4). The plate was then transferred to an Alpha Fusion plate reader and read with a 485/520 nm filter.
# This fluorogenic assay was also specific.
# GST-TAPP1 = GST-TAPP1 (Homo sapiens, UniProt Q9HB21); test: Competitive FP assay, displacement of BODIPY-TMR-PI(3,4)P2 tracer from GST-TAPP1
# Procedure: (§1) In order to use these reagents in a competitive FP assay, unlabeled phosphoinositide products of an enzymatic reaction must be able to successfully compete with the labeled tracer for interaction with the binding proteins. In addition, the level of cross-reactivity of binding proteins with the phosphoinositides used as enzyme substrates should be minimal. To examine the suitability of these phosphoinositide binding proteins for this application, competition assays were performed using optimal amounts of lipid binding proteins and fluorescent tracers, mixed with increasing amounts of diC8-phosphoinositide competitors.
# Similar competition assays were performed to examine the selectivity and sensitivity of PI(3,4)P2 detection by GST-TAPP1 (FIG. 10). In these assays, the concentrations of GST-TAPP1 and the fluorescently labeled phosphoinositide were held constant as the concentration of unlabeled lipid competitor was increased. […] In implementing these assays, the initial amount of PI(3,4,5)P3 substrate should be kept low enough to minimize competition.
# GST-GRP1-PH = molecular target: T2, GST-GRP1-PH (Homo sapiens, UniProt O43739); test: Competitive FP assay, displacement of fluorescent tracer from GST-GRP1-PH; settings: displacement of BODIPY®-TMR-I(1,3,4,5)P4 tracer
# T2 construct: The PH domain of GRP1 (general receptor for phosphoinositides) was used as a detector for PI(3,4,5)P3
# T2 sequence (O43739 264-381 limits assumed): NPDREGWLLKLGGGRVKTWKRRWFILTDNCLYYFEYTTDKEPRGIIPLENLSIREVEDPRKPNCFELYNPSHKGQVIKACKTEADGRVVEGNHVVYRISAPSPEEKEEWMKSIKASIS
# Procedure: as §1
# The sensitivity of this approach for detecting conversion of PI(4,5)P2 to PI(3,4,5)P3 was evaluated using GST-GRP1-PH protein and FAM and BODIPY®-TMR labeled tracers. Competition assays in which both diC8-PI(3,4,5)P3 and diC8-PI(4,5)P2 were added at increasing concentrations were performed.
# SMQ-Grp1 = molecular target: T3, SMQ-Grp1 (Homo sapiens, UniProt O43739); test: Competitive dequenching fluorogenic assay with SMQ-Grp1
# T3 construct: small molecular quencher (Dabcyl, QSY 7 or QSY 9); made in house
# T3 sequence (O43739 1-400): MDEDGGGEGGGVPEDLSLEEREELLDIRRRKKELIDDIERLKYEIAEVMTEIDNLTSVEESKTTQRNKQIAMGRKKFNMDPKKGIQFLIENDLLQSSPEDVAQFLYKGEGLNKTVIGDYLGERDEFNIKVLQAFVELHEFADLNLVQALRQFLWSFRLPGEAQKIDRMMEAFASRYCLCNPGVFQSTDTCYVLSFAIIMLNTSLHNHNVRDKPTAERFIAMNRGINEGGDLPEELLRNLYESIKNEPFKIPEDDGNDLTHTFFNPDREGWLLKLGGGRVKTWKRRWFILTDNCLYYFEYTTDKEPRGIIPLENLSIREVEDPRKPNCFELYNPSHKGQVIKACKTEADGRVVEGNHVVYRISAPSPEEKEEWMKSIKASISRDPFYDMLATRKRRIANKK
# Procedure: The fluorogenic assays were set up in a black 384-well plate. The combination of 100 nM, 10 nM and 1 nM of SMQ-Grp1 conjugate was incubated with 100 nM, 50 nM and 25 nM BODIPY®-FL-labeled PI(3,4,5)P3. The total assay volume was […] in a PBS buffer at a pH of 7.5. The assay mixture was incubated in the dark for one hour at 25° C. The plate was then transferred to an Alpha Fusion plate reader and read with a 485/520 nm filter. […] For example, if BODIPY®-FL-PI(3,4,5)P3 is fixed at 25 nM, increasing the amount of Dabcyl-Grp1 conjugate (from 1 nM to 100 nM) caused decreasing amounts of fluorescence (FIG. 24). Similar fluorescence quenching profiles were shown for QSY 7-Grp1 and QSY 9-Grp1.
# The quenching effects of BODIPY®-FL-PI(3,4,5)P3 by SMQ-Grp1 were specific. diC8 PI(3,4,5)P3 as a competitor antagonized the fluorescence quenching effect of BODIPY®-FL-PI(3,4,5)P3 by SMQ-Grp1 in a dose-response manner. diC8 PI(3,4,5)P3 was used at varying concentrations to compete with BODIPY®-FL-PI(3,4,5)P3 for binding to the SMQ-Grp1 conjugate. […] In each bar graph in FIG. 25, from the right to the left, the bars show the fluorescence reading of PBS as the background, the diC8 PI(3,4,5)P3 only, the SMQ-Grp1 conjugate only, BODIPY®-FL-PI(3,4,5)P3 only, Grp1-SMQ plus BODIPY®-FL-PI(3,4,5)P3, Grp1-SMQ plus BODIPY®-FL-PI(3,4,5)P3 with 10 pmol of diC8 PI(3,4,5)P3 as the competitor, Grp1-SMQ plus BODIPY®-FL-PI(3,4,5)P3 with 100 pmol of diC8 PI(3,4,5)P3 as the competitor, Grp1-SMQ plus BODIPY®-FL-PI(3,4,5)P3 with 1000 pmol of diC8 PI(3,4,5)P3 as the competitor, and Grp1-SMQ plus BODIPY®-FL-PI(3,4,5)P3 with 10000 pmol of diC8 PI(3,4,5)P3 as competitor. […]
# Fluorogenic assays were also used to compare competition of diC8 PI(3,4,5)P3 to PI(4,5)P2 and PI(3)P. With increasing amounts of PI(3,4,5)P3 the signal begins to increase, indicating competition, whereas as PI(4,5)P2 and PI(3)P show little change, indicating less competition. […] The production (or presence) of PI(3,4,5)P3 in this assay system corresponds to the elevation of the fluorescence signal.
# [1] = Fluorogenic assay, quenching of BODIPY-FL-PI(3,4,5)P3 by SMQ-Grp1 conjugates
# Source text: The chemical modification of LRPs, e.g. Grp1, a PI(3,4,5)P3 binder, with small molecular quenchers (SMQ) has been thoroughly studied in this invention. Three SMQs, Dabcyl-SE (4-((4-(dimethylamino)phenyl)azo)benzoic acid, succinimidyl ester), QSY 7-SE (9-[2-[[4-[[(2,5-dioxo-1-pyrrolidinyl)oxy]carbonyl]-1-piperidinyl]sulfonyl]phenyl]-3,6-bis(methylphenylamino)-, chloride) and QSY 9-SE (QSY® 9 carboxylic acid, succinimidyl ester, C43H39ClN4O13S3), with diverse structures, spectral properties, hydrophobicity and solubility properties, were coupled to Grp1. Specifically, SMQ-modified Grp1 still retains its binding activity and quenches the fluorescence of BODIPY®-FL labeled PI(3,4,5)P3. With a fixed amount of BODIPY®-FL-PI(3,4,5)P3 in solution, increasing the amount of SMQ-Grp1 caused decreasing fluorescence of the PI(3,4,5)P3 fluorescent probes. At a ratio of 2:1 (QSY 7-Grp1:BODIPY®-FL-PI(3,4,5)P3), QSY 7-Grp1 quenched up to 70% of the fluorescence intensity of BODIPY®-FL PI(3,4,5)P3.
# The fluorogenic assays were set up in a black 384-well plate. […] The plate was then transferred to an Alpha Fusion plate reader and read with a 485/520 nm filter. […] For example, if BODIPY®-FL-PI(3,4,5)P3 is fixed at 25 nM, increasing the amount of Dabcyl-Grp1 conjugate (from 1 nM to 100 nM) caused decreasing amounts of fluorescence (FIG. 24). […]
# GST-TAPP1, sequence (Q9HB21 whole entry): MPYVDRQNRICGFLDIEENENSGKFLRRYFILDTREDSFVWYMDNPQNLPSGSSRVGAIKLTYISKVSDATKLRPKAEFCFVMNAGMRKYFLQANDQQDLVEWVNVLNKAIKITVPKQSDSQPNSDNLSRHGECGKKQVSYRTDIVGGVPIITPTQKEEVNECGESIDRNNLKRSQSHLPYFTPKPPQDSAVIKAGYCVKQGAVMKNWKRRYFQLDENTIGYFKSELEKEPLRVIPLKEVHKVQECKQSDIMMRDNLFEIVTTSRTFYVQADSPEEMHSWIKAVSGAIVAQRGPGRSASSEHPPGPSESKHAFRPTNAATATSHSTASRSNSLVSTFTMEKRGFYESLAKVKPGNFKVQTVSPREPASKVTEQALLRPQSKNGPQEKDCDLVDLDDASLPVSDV
molecule,measurement,setting,value
"CCCCCCCCCCCCCCCC(=O)OC[C@H](COP(=O)(O)OC1[C@H](O)[C@H](OP(=O)(O)O)C(OP(=O)(O)O)[C@H](OP(=O)(O)O)[C@H]1O)OC(=O)CCCCCCCCCCCCCCC (stereo partly drawn) [DiC16 PI(3,4,5)P3]","effect on fluorescence of BODIPY®-FL PI(3,4,5)P3 (competition)",GST-Grp1,restored the fluorescence
"CCCCCCCC(=O)OC[C@H](COP(=O)(O)O[C@H]1[C@H](O)[C@@H](O)[C@H](OP(=O)(O)O)[C@@H](OP(=O)(O)O)[C@H]1O)OC(=O)CCCCCCC [diC8-PI(3,4)P2]",IC50,GST-TAPP1; read-out: IC50,165 nM
"CCCCCCCC(=O)OC[C@H](COP(=O)(O)OC1[C@H](O)[C@H](OP(=O)(O)O)C(OP(=O)(O)O)[C@H](OP(=O)(O)O)[C@H]1O)OC(=O)CCCCCCC (stereo partly drawn) [diC8-PI(3,4,5)P3]",IC50,GST-GRP1-PH,218 nM
same,IC50,"GST-TAPP1; predicted, read-out: predicted IC50",1510 nM
same,"fluorescence restored, of the original","SMQ-Grp1; 10000 pmol competitor, Dabcyl-Grp1 100 nM, probe 50 nM",up to 70%
"CCCCCCCCCCCCCCCC(=O)OC[C@H](COP(=O)(O)O[C@@H]1[C@H](O)[C@H](O)[C@@H](OP(=O)(O)O)[C@H](OP(=O)(O)O)[C@H]1O)OC(=O)CCCCCCCCCCCCCCC [diC16 PI(4,5)P2]","effect on fluorescence of BODIPY®-FL PI(3,4,5)P3 (competition)",GST-Grp1,only marginally increased the fluorescence at higher concentrations
PI(3)P,change of fluorescence signal (competition),"SMQ-Grp1; increasing amounts of competitor, compared with diC8 PI(3,4,5)P3",little change
"QSY 7-Grp1: Grp1, a PI(3,4,5)P3 binder, coupled to small molecular quencher QSY 7-SE (conjugate, UniProt O43739 1-400, looked up, QSY 7 quencher) Cytohesin-3: MDEDGGGEGGGVPEDLSLEEREELLDIRRRKKELIDDIERLKYEIAEVMTEIDNLTSVEESKTTQRNKQIAMGRKKFNMDPKKGIQFLIENDLLQSSPEDVAQFLYKGEGLNKTVIGDYLGERDEFNIKVLQAFVELHEFADLNLVQALRQFLWSFRLPGEAQKIDRMMEAFASRYCLCNPGVFQSTDTCYVLSFAIIMLNTSLHNHNVRDKPTAERFIAMNRGINEGGDLPEELLRNLYESIKNEPFKIPEDDGNDLTHTFFNPDREGWLLKLGGGRVKTWKRRWFILTDNCLYYFEYTTDKEPRGIIPLENLSIREVEDPRKPNCFELYNPSHKGQVIKACKTEADGRVVEGNHVVYRISAPSPEEKEEWMKSIKASISRDPFYDMLATRKRRIANKK","quenching of fluorescence intensity of BODIPY®-FL PI(3,4,5)P3","[1]; ratio 2:1 (QSY 7-Grp1:BODIPY®-FL-PI(3,4,5)P3)",up to 70%
"Dabcyl-Grp1 conjugate: Grp1, a PI(3,4,5)P3 binder, coupled to small molecular quencher Dabcyl-SE (conjugate, UniProt O43739 1-400, looked up, Dabcyl quencher) Cytohesin-3: MDEDGGGEGGGVPEDLSLEEREELLDIRRRKKELIDDIERLKYEIAEVMTEIDNLTSVEESKTTQRNKQIAMGRKKFNMDPKKGIQFLIENDLLQSSPEDVAQFLYKGEGLNKTVIGDYLGERDEFNIKVLQAFVELHEFADLNLVQALRQFLWSFRLPGEAQKIDRMMEAFASRYCLCNPGVFQSTDTCYVLSFAIIMLNTSLHNHNVRDKPTAERFIAMNRGINEGGDLPEELLRNLYESIKNEPFKIPEDDGNDLTHTFFNPDREGWLLKLGGGRVKTWKRRWFILTDNCLYYFEYTTDKEPRGIIPLENLSIREVEDPRKPNCFELYNPSHKGQVIKACKTEADGRVVEGNHVVYRISAPSPEEKEEWMKSIKASISRDPFYDMLATRKRRIANKK","quenching of fluorescence of BODIPY®-FL-PI(3,4,5)P3","[1]; SMQ-Grp1 100 nM, BODIPY®-FL-PI(3,4,5)P3 50 nM",~70%
